According to ChEMBL document CHEMBL1201862, “PubChem BioAssay data set” (2004):
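Step 1: Grow cells in 96-well plates. Step 2: Expose to compound for 48 hours at 5 concentrations. Step 3: Interpolate endpoints linearly; if unreached, use highest concentration. Here, GI50 denotes the concentration required for 50% inhibition of growth.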 Activity calls are given as the source filed them. Rule as the data show it: active = GI50 up to about 1.1 µM and inactive = higher. Where a SMILES comes first, the peptide text is derived from it. [ ]: non-standard residue; d: D form. The star is where a group is joined. NMeF = CN[CH](Cc1ccccc1)C(=O)O; NMeV = CN[CH](C(=O)O)C(C)C; Boc = CC(C)(C)OC(=O)*; OBn = c1ccc(CO*)cc1

What was measured:
Assay in all cases: growth of human tumour cells (NCI), 48 h
HT-29 = test system: HT-29
NCI-H522 = test system: NCI-H522
UACC-257 = test system: UACC-257
CAKI-1 = test system: CAKI-1
M14 = test system: M14
KM12 = test system: KM12
OVCAR-3 = test system: OVCAR-3
COLO 205 = test system: COLO 205
SF-295 = test system: SF-295
NCI-H226 = test system: NCI-H226
RXF 393 = test system: RXF 393
A549 = test system: A549
NCI-H460 = test system: NCI-H460
HCT-15 = test system: HCT-15
SK-MEL-28 = test system: SK-MEL-28
SK-MEL-5 = test system: SK-MEL-5
HCT-116 = test system: HCT-116
HOP-92 = test system: HOP-92

SMILES	GI50 (HT-29)	GI50 (NCI-H522)	GI50 (UACC-257)	GI50 (CAKI-1)	GI50 (M14)	GI50 (KM12)	GI50 (OVCAR-3)	GI50 (COLO 205)	GI50 (SF-295)	GI50 (NCI-H226)	GI50 (RXF 393)	GI50 (A549)	GI50 (NCI-H460)	GI50 (HCT-15) [µM]	GI50 (SK-MEL-28)	GI50 (SK-MEL-5)	GI50 (HCT-116)	GI50 (HOP-92)
O=C(O)c1ccc(C2C3C=CC(C3)C2[N+](=O)[O-])cc1 (stereo not given)	> 100 µM (inactive)	> 100 µM (inactive)	> 100 µM (inactive)	> 100 µM (inactive)	> 100 µM (inactive)	> 100 µM (inactive)	> 100 µM (inactive)	> 100 µM (inactive)	> 100 µM (inactive)	> 100 µM (inactive)	> 100 µM (inactive)	> 100 µM (inactive)	> 100 µM (inactive)	> 100	> 100 µM (inactive)	> 100 µM (inactive)		
O=Cc1ccccc1COC(=O)c1cc(C(=O)OCc2ccccc2C=O)c(C(=O)OCc2ccccc2C=O)cc1C(=O)OCc1ccccc1C=O	> 100 µM (inactive)	> 100 µM (inactive)	> 100 µM (inactive)	> 100 µM (inactive)	> 100 µM (inactive)	> 100 µM (inactive)	> 100 µM (inactive)	> 100 µM (inactive)	64.6 µM (inactive)	> 100 µM (inactive)	31.3 µM (inactive)	> 100 µM (inactive)	> 100 µM (inactive)	> 100	> 100 µM (inactive)	> 100 µM (inactive)	31.9 µM (inactive)	31.6 µM (inactive)
Cc1c(C)c([N+](=O)[O-])c2c(c1N)C(=O)c1ccccc1C2=O	55.2 µM (inactive)	61.7 µM (inactive)	> 100 µM (inactive)		> 100 µM (inactive)	> 100 µM (inactive)	24.8 µM (inactive)	58.9 µM (inactive)	> 100 µM (inactive)	> 100 µM (inactive)	> 100 µM (inactive)	> 100 µM (inactive)		> 100	> 100 µM (inactive)	> 100 µM (inactive)	> 100 µM (inactive)	> 100 µM (inactive)
C[C@H]1CC(=O)C2=CCCC3(SCCCS3)[C@@H]2[C@H]1CO	> 100 µM (inactive)	> 100 µM (inactive)	> 100 µM (inactive)	> 100 µM (inactive)	> 100 µM (inactive)	> 100 µM (inactive)	> 100 µM (inactive)	> 100 µM (inactive)	> 100 µM (inactive)	> 100 µM (inactive)	> 100 µM (inactive)	> 100 µM (inactive)	> 100 µM (inactive)		> 100 µM (inactive)	> 100 µM (inactive)	89.5 µM (inactive)	> 100 µM (inactive)
CC(=O)O[C@]12CCCC1C1(O)C(O)CCCC12 (stereo not given in full)	> 100 µM (inactive)	> 100 µM (inactive)	> 100 µM (inactive)		> 100 µM (inactive)	> 100 µM (inactive)		> 100 µM (inactive)	> 100 µM (inactive)	> 100 µM (inactive)	> 100 µM (inactive)	> 100 µM (inactive)	> 100 µM (inactive)	> 100	> 100 µM (inactive)	> 100 µM (inactive)	> 100 µM (inactive)	
O=C1C2c3[nH]c4ccccc4c3C3CCCCC3C2C(=O)N1c1ccccc1 (stereo not given)	> 100 µM (inactive)				36.6 µM (inactive)	> 100 µM (inactive)	73.6 µM (inactive)	> 100 µM (inactive)	48.9 µM (inactive)	> 100 µM (inactive)	19.6 µM (inactive)	> 100 µM (inactive)	> 100 µM (inactive)	> 100	> 100 µM (inactive)	> 100 µM (inactive)		
Cc1nc(-c2cccnc2)sc1C(=O)/C=C/c1ccc(Cl)cc1Cl	> 100 µM (inactive)	94.6 µM (inactive)	> 100 µM (inactive)	> 100 µM (inactive)		> 100 µM (inactive)	> 100 µM (inactive)	> 100 µM (inactive)	> 100 µM (inactive)	> 100 µM (inactive)	53.8 µM (inactive)	> 100 µM (inactive)	> 100 µM (inactive)	> 100	> 100 µM (inactive)	> 100 µM (inactive)		> 100 µM (inactive)
O=c1ncccn1C1OC(CO)C(O)C1O (stereo not given)	> 100 µM (inactive)	> 100 µM (inactive)	> 10 µM (inactive)	> 100 µM (inactive)	> 100 µM (inactive)	> 100 µM (inactive)		> 100 µM (inactive)		> 100 µM (inactive)	> 100 µM (inactive)	> 100 µM (inactive)	> 100 µM (inactive)	> 100	> 100 µM (inactive)		> 100 µM (inactive)	> 100 µM (inactive)
CC(C)C(NC(=O)OC(C)(C)C)C(=O)N(C)C(Cc1ccccc1)C(=O)N(C)C(C(=O)N(C)C(C(=O)OCc1ccccc1)C(C)C)C(C)C (stereo not given) (Boc-V[NMeF][NMeV][NMeV]-OBn; configuration not given here)	20.2 µM (inactive)	16.7 µM (inactive)	39.6 µM (inactive)		62.8 µM (inactive)	> 100 µM (inactive)	> 100 µM (inactive)	> 100 µM (inactive)	51.2 µM (inactive)	> 100 µM (inactive)		> 100 µM (inactive)	> 100 µM (inactive)	> 100		12.5 µM (inactive)	66.5 µM (inactive)	
